Source: US20080227846A1, “METHODS OF TREATING JUVENILE TYPE 1 DIABETES MELLITUS” (MUSC Foundation for Research Development, priority 2007, published 2008)
Several values for one entry are separate records, joined by “and”; a condition that tells them apart may be missing. Equal entries are not always repeated.

Tests used:
[1] = Palomer et al., Diabetologia 48:1671-1673 (2005); cited from earlier work
NOD mice [2] = assay: Prevention of diabetes in NOD mice, daily oral atorvastatin calcium or AICAR; type: in vivo, mouse; details: for NOD mice without diabetes compared to saline: FIG. 6, atorvastatin p<0.004, AICAR 10 mg/kg body weight per day orally p<0.001
Description: The non-obese diabetic (NOD) mouse model is the best-studied animal model of autoimmune diabetes. […] Spontaneous diabetes occurs in female NOD mice and is preceded by insulitis, a lymphocytic infiltration of the pancreatic islets, which is the major histologic event occurring by 5-8 weeks in the NOD mouse (Chatenoud et al., Proc. Natl. Acad. Sci. 91:123-127, 1994).
In these experiments, 4-week old female NOD mice were obtained from Jackson Laboratories (JAX strain no 001976; NOD/LtJ strain) and maintained in a sterile environment. Drug treatment began at 4-weeks of age, prior to inflammatory disease onset. Under normal conditions, diabetes begins appearing in NOD mice by 12-weeks in untreated animals, with 90-100% of the mice developing the disease by 30-weeks.
The animals were divided into three groups of 23 animals each. Group 1 was the control and received vehicle only by oral lavage of physiological saline daily. Groups 2 and 3 received atorvastatin calcium (Lipitor®) at a dose of 5 or 10 mg/kg body weight daily, respectively. Blood glucose (BG) was measured in each animal three-times per week. […] Also, two non-diabetic animals from each group were sacrificed on days 50, 70, and 80 for histological and cytokine analyses (not included in FIG. 1).
In addition to statins, AICAR was also administered to NOD mice at 10 mg/kg body weight per day orally.

[3] = system: macrophages (ED1) and granulocytes (GR) infiltrated into the pancreatic islets; assay: Immunohistopathology staining of pancreas for infiltration of macrophages and granulocytes; details: for entry of inflammatory cells into pancreatic tissue: animals of Example 1
iNOS and TNF-α protein = assay: Western blot of pancreas tissue; type: in vivo, mouse; details: vs saline-treated diabetic mice
NOD mice [4] = assay: Atorvastatin calcium and AICAR, individually and in combination, blood glucose in NOD mice; type: in vivo, mouse; details: FIG. 8
[5] = system: iNOS, TNF-α, and IFN-γ mRNA; assay: Quantitative real-time PCR of pancreas, pro-inflammatory cytokines and iNOS; type: in vivo, mouse; details: FIG. 9, vs saline-treated mice
[6] = system: juvenile patients newly diagnosed with T1DM; assay: Statin treatment of juvenile patients newly diagnosed with T1DM, C-peptide; type: in vivo, human; details: patient
Procedure: Two juvenile patients newly diagnosed with T1DM were treated with a statin in order to evaluate whether the diabetic condition in the juvenile patient can be stabilized or reversed by statin treatment. A human patient who was positive for insulin antibodies was identified as having new onset T1DM. […] The patient was treated with 10 mg/day for the first two weeks after diagnosis, and 20 mg/day thereafter.
A human patient who was positive for insulin antibodies was identified as having new onset T1DM. The patient began treatment with 20 mg/day atorvastatin calcium (Lipitor®) at the time (the day of) diagnosis of T1DM. […] Normally, within 12 months after diagnosis a child would have been expected to drop from 100% of the insulin the patient started with to 14.0%±7% (s.d.) of the insulin the child started with.

new-onset T1DM patients = details: cited from earlier work
NOD mice [7] = assay: Simvastatin plus insulin, blood glucose in NOD mice; type: in vivo, mouse
Procedure: In another experiment, simvastatin was administered to NOD mice, and the animals were supplemented with insulin in an attempt to keep the animals from developing diabetic ketoacidosis. The study was designed to examine whether simvastatin at 2 mg/kg/day and 5 mg/kg/day protected islet cells from damage during early phases of diabetes. […]. The animals were divided into four groups randomly. Group 1 was the control and received oral lavage of physiological saline daily, plus insulin as set forth above. Groups 2 and 3 received simvastatin at a dose of 2 mg/kg/day or 5 mg/kg/day, respectively, along with insulin as set forth above. Group 4 received no treatment with either simvastatin or insulin. Blood glucose (BG) was measured in each animal approximately once a week, unless the glucose level of an animal began to fluctuate, at which time glucose level were measured every other day. This study lasted approximately four months. The last column of Table 1 is a list of measurements of glucose levels in all animals treated with simvastatin.

## CC(C)c1c(C(=O)Nc2ccccc2)c(-c2ccccc2)c(-c2ccc(F)cc2)n1CC[C@@H](O)C[C@@H](O)CC(=O)O [atorvastatin calcium]
[1]
  effect on preventing diabetes: no effect on preventing diabetes
NOD mice [2]; 10 mg/kg daily oral, s.e.=15, n=277, p<0.001 vs saline 219
  mean BGs: 182.5
NOD mice [2]
  NOD mice without diabetes compared to saline: effective
NOD mice [2]; NOD mice, 5 or 10 mg/kg daily
  protection from development of auto-immune diabetes: partially protects
NOD mice [2]; after 104 days of treatment, 5 or 10 mg/kg daily, FIG. 1
  number of surviving disease-free animals vs control group: greater
NOD mice [2]; during treatment, FIG. 1
  number of animals that developed diabetes: reduction in the number of animals that developed diabetes
[3]
  entry of inflammatory cells into pancreatic tissue: inflammatory cells are not entering pancreatic tissue
[3]; vs intense staining in saline-treated mice
  immunostaining for ED1 and GR1 marker proteins in pancreas: No immunostaining was observed
iNOS and TNF-α protein
  expression of iNOS and TNF-α protein in pancreas: increased expression of iNOS and TNF-α protein in saline-treated diabetic mice compared with atorvastatin calcium-treated mice
NOD mice [4]; Group 2, 5 mg/kg body weight daily oral, day 59-109 after weaning
  mean BG vs control Group 1: lower
NOD mice [4]; Group 3, 10 mg/kg body weight daily oral, day 59-109 after weaning
  mean BG vs control Group 1: lower
[5]
  mRNA expression of iNOS, TNF-α, and IFN-γ in pancreas: elevated in saline-treated mice
[6]; 10 mg/day two weeks then 20 mg/day, six months, FIG. 14
  C-peptide: marked increase in C-peptide
[6]; 20 mg/day, after 50 days of treatment
  rise of C-peptide levels: 39.25%
[6]; 20 mg/day, after 50 days of treatment, initial 35.8 units
  C-peptide level: 49.85 units
[6]; 20 mg/day, over a period of 24 months, FIG. 15
  increase of insulin over the original amount of C-peptide: 240%
[6]; expected […]±7% of starting insulin within 12 months
  net increase of the amount of insulin vs expected: 600%

## hOKT3y1(ala-ala): modified, nonmitogenic, humanized form of the anti-CD3 monoclonal antibody
new-onset T1DM patients; one year after initial 14-day course, 25% in the control group, Herold et al. 2002
  patients who maintained the same or improved endogenous insulin secretion: 75%

## TRX4: anti-CD3 monoclonal antibody with orphan drug status
new-onset T1DM patients; six-day intravenous infusion
  adverse effect associated with therapy: moderate “flu-like” syndrome

## CCC(C)(C)C(=O)O[C@H]1C[C@@H](C)C=C2C=C[C@H](C)[C@H](CC[C@@H]3C[C@@H](O)CC(=O)O3)[C@H]21 [simvastatin]
NOD mice [7]; Group 2, simvastatin 2 mg/kg/day plus insulin, 36 determinations, p=0.05 vs saline plus insulin
  average blood glucose level: 143.6 ± 26.5 mg/dL
NOD mice [7]; Group 2, simvastatin 2 mg/kg/day plus insulin, 36 determinations, p=0.05 vs saline plus insulin, listed as Simv.
  average blood glucose level: 143.6 mg/dL
NOD mice [7]; Group 3, simvastatin 5 mg/kg/day plus insulin, 28 determinations, p<0.02 vs saline plus insulin
  average blood glucose level: 134.5 ± 15.7 mg/dL
NOD mice [7]; Group 3, simvastatin 5 mg/kg/day plus insulin, 28 determinations, p<0.02 vs saline plus insulin, listed as Simv.
  average blood glucose level: 134.5 mg/dL
NOD mice [7]; Simvastatin Combined, 64 determinations
  average blood glucose level: 139.7 mg/dL and 139.6563 mg/dL

## NC(=O)c1ncn([C@@H]2O[C@H](CO)[C@@H](O)[C@H]2O)c1N [AICAR, 5-aminoimidazole-4-carboxamide ribonucleoside]
NOD mice [2]
  NOD mice without diabetes compared to saline: significantly different
[3]
  entry of inflammatory cells into pancreatic tissue: inflammatory cells are not entering pancreatic tissue
NOD mice [4]; Group 4, 0.5 mg/gm body weight daily oral, p=0.025 by log-rank test
  mean BG vs control Group 1: lower
[5]
  mRNA expression of iNOS, TNF-α, and IFN-γ in pancreas: elevated in saline-treated mice
